Data taken from US8143290B2, “Chemical compounds 572” (AstraZeneca AB, priority 2006, dated 2012).
Structures can show the parent of a compound that is named as a salt.

target: T1, recombinant human GR (Homo sapiens, UniProt P04150); test: Human Glucocorticoid Receptor (GR) Assay, fluorescence polarization; format: binding; conditions: GS Red tracer, incubated 2 h at r.t., XLfit model 205, read-out: GRhuFL_FP_v2 Mean IC50
T1 construct: purchased Panvera/Invitrogen P2812 (kit P2893)
T1 sequence (P04150 1-777): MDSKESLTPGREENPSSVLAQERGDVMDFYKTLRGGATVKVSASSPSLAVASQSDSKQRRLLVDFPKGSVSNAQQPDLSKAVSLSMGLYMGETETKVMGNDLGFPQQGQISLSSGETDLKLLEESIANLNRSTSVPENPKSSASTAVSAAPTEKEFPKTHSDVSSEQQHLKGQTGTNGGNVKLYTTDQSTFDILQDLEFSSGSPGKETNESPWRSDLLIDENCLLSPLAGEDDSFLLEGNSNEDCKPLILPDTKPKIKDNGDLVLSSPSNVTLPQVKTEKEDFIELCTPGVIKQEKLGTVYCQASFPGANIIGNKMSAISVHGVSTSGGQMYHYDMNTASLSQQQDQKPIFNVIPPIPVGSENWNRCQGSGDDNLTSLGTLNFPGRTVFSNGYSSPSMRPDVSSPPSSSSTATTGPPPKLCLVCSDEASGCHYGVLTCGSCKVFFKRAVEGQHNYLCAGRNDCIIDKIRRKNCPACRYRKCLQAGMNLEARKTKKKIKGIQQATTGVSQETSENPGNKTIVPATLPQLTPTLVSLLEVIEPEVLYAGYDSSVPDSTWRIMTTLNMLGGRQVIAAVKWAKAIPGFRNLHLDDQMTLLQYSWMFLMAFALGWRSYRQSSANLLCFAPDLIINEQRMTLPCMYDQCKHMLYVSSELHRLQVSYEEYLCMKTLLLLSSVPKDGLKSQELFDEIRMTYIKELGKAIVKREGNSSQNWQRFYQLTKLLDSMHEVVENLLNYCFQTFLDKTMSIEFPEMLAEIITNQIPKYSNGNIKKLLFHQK
Experimental: Human Glucocorticoid Receptor (GR) Assay
The assay is based on a commercial kit from Panvera/Invitrogen (Part number P2893). The assay technology is fluorescence polarization. […] The GR and Stabilizing Peptide reagents are stored at −70° C. while the GS Red is stored at −20° C. Also included in the kit are 1M DTT (Panvera, Part number P2325, stored at −20° C.) and GR Screening buffer 10× (Panvera, Part number P2814, stored at −70° C. initially but once thawed stored at r.t.). Avoid repeated freeze/thaws for all reagents. The GR Screening buffer 10× comprises 100 mM potassium phosphate, 200 mM sodium molybdate, 1 mM EDTA and 20% DMSO.
0% control was 100% DMSO and 100% control was […] Dexamethasone. Background solution (8 μL; assay buffer 10×, Stabilizing Peptide, DTT and ice cold MQ water) was added to the background wells. GS Red solution (7 μL; assay buffer 10×, Stabilizing Peptide, DTT, GS Red and ice cold water) was added to all wells except background wells. GR solution (7 μL; assay buffer 10×, Stabilizing Peptide, DTT, GR and ice cold water) was added to all wells. The plate was sealed and incubated in a dark at r.t. for 2 h.

SMILES	IC50
COc1cccc([C@@H](Oc2ccc3c(cnn3-c3ccc(F)cc3)c2)[C@H](C)NC(=O)[C@H]2CCCN2)c1 [Example 304, (R)-N-((1R,2S)-1-(1-(4-fluorophenyl)-1H-indazol-5-yloxy)-1-(3-methoxyphenyl)propan-2-yl)pyrrolidine-2-carboxamide trifluoroacetic acid salt]	7.5 nM
C[C@H](NC(=O)CO)[C@@H](Cc1ccccc1)Oc1ccc2c(cnn2-c2ccc(F)cc2)c1 [Example 74, N-[(2S,3R)-3-[1-(4-Fluorophenyl)indazol-5-yl]oxy-4-phenyl-butan-2-yl]-2-hydroxy-acetamide]	3.7 nM
Cc1cnc(C(=O)N[C@@H](C)[C@H](Oc2ccc3c(cnn3-c3ccc(F)cc3)c2)c2ccc(F)cc2C)s1 [Example 200, N-[(1R,2S)-1-(4-fluoro-2-methyl-phenyl)-1-[1-(4-fluorophenyl)indazol-5-yl]oxy-propan-2-yl]-5-methyl-1,3-thiazole-2-carboxamide]	4.6 nM
Cc1ccc([C@@H](Oc2ccc3c(cnn3-c3ccc(F)cc3)c2)[C@H](C)NC(=O)C(C)(C)F)cc1C [Example 240, N-[(1R,2S)-1-(3,4-dimethylphenyl)-1-[1-(4-fluorophenyl)indazol-5-yl]oxy-propan-2-yl]-2-fluoro-2-methyl-propanamide]	5.9 nM
Cc1cc([C@@H](Oc2ccc3c(cnn3-c3ccc(F)cc3)c2)[C@H](C)NC(=O)C(C)(C)C)ccc1Cl [Example 191, N-[(1R,2S)-1-(4-chloro-3-methyl-phenyl)-1-[1-(4-fluorophenyl)indazol-5-yl]oxy-propan-2-yl]-2,2-dimethyl-propanamide]	5.9 nM
COc1ccc(F)cc1[C@@H](Oc1ccc2c(cnn2-c2ccc(F)cc2)c1)[C@H](C)NC(=O)C(C)(F)F [Example 235, 2,2-difluoro-N-[(1R,2S)-1-(5-fluoro-2-methoxy-phenyl)-1-[1-(4-fluorophenyl)indazol-5-yl]oxy-propan-2-yl]propanamide]	5.4 nM
C[C@H](NC(=O)c1ccco1)[C@H](Oc1ccc2c(cnn2-c2cccnc2)c1)c1ccccc1 [Example 114, N-[(1S,2R)-1-Methyl-2-phenyl-2-{[1-(3-pyridyl)-1H-indazol-5-yl]oxy}ethyl]furan-2-carboxamide]	3.2 nM
CCC(=O)N[C@@H](C)[C@H](Oc1ccc2c(cnn2-c2ccc(F)cc2)c1)c1ccccc1 [Example 3, N-((1S,2R)-2-{[1-(4-fluorophenyl)-1H-indazol-5-yl]oxy}-1-methyl-2-phenylethyl)propanamide]	3.2 nM
COc1cccc([C@@H](Oc2ccc3c(cnn3-c3ccc(F)cc3)c2)[C@H](C)NC(=O)c2ccc(C)s2)c1 [Example 131, N-[(1R,2S)-1-[1-(4-fluorophenyl)indazol-5-yl]oxy-1-(3-methoxyphenyl)propan-2-yl]-5-methyl-thiophene-2-carboxamide]	4 nM
COc1c(C)cc([C@@H](Oc2ccc3c(cnn3-c3ccc(F)cc3)c2)[C@H](C)NC(=O)C(F)(F)F)cc1C [Example 159, 2,2,2-trifluoro-N-[(1R,2S)-1-[1-(4-fluorophenyl)indazol-5-yl]oxy-1-(4-methoxy-3,5-dimethyl-phenyl)propan-2-yl]acetamide]	4.2 nM
C[C@H](NC(=O)C(C)(C)F)[C@H](Oc1ccc2c(cnn2-c2ccc(F)cc2)c1)c1cccc(Cl)c1 [Example 247, N-[(1R,2S)-1-(3-chlorophenyl)-1-[1-(4-fluorophenyl)indazol-5-yl]oxy-propan-2-yl]-2-fluoro-2-methyl-propanamide]	4.4 nM
C[C@H](NC(=O)C(F)(F)F)[C@H](Oc1ccc2c(cnn2-c2ccc(F)cc2)c1)c1ccc(Cl)c(F)c1 [Example 170, N-[(1R,2S)-1-(4-chloro-3-fluoro-phenyl)-1-[1-(4-fluorophenyl)indazol-5-yl]oxy-propan-2-yl]-2,2,2-trifluoro-acetamide]	7.1 nM
COCC(=O)N[C@@H](C)[C@H](Oc1ccc2c(cnn2-c2ccc(F)cc2)c1)c1ccc(C)cc1C [Example 261, N-[(1R,2S)-1-(2,4-dimethylphenyl)-1-[1-(4-fluorophenyl)indazol-5-yl]oxy-propan-2-yl]-2-methoxy-acetamide]	5.7 nM
COc1cccc([C@@H](Oc2cc3cnn(-c4ccc(F)cc4)c3cc2C)[C@H](C)NC(=O)C(C)(C)C)c1 [Example 66, N-[(1R,2S)-1-[1-(4-Fluorophenyl)-6-methyl-indazol-5-yl]oxy-1-(3-methoxyphenyl)propan-2-yl]-2,2-dimethyl-propanamide]	4.2 nM
COCC(=O)N[C@@H](C)[C@H](Oc1ccc2c(cnn2-c2ccccn2)c1)c1ccccc1 [Example 118, 2-Methoxy-N-[1-methyl-2-phenyl-2-(1-pyridin-2-yl-1H-indazol-5-yloxy)-ethyl]acetamide]	2.9 nM
COc1cccc([C@@H](Oc2ccc3c(cnn3-c3ccc(F)cc3)c2)[C@H](C)NC(=O)c2cc(C)c(C)s2)c1 [Example 291, N-[(1R,2S)-1-[1-(4-fluorophenyl)indazol-5-yl]oxy-1-(3-methoxyphenyl)propan-2-yl]-4,5-dimethyl-thiophene-2-carboxamide]	6.4 nM
C[C@H](NC(=O)C(F)Cl)[C@H](Oc1ccc2c(cnn2-c2ccc(F)cc2)c1)c1ccccc1 (stereo partly drawn) [Example 47, 2-Chloro-2-fluoro-N-[(1R,2S)-1-[1-(4-fluorophenyl)indazol-5-yl]oxy-1-phenyl-propan-2-yl]acetamide]	2.5 nM
Cc1ccc(C)c([C@@H](Oc2ccc3c(cnn3-c3ccc(F)cc3)c2)[C@H](C)NC(=O)C2(C)CC2)c1 [Example 215, N-[(1R,2S)-1-(2,5-dimethylphenyl)-1-[1-(4-fluorophenyl)indazol-5-yl]oxy-propan-2-yl]-1-methyl-cyclopropane-1-carboxamide]	4.4 nM
COCC(=O)N[C@@H](C)[C@H](Oc1ccc2c(cnn2-c2ccc(F)cc2)c1)c1ccc(SC)cc1 [Example 9, N-[(1R,2S)-1-[1-(4-fluorophenyl)indazol-5-yl]oxy-1-(4-methylsulfanylphenyl)propan-2-yl]-2-methoxy-acetamide]	2 nM
COc1cccc([C@@H](Oc2ccc3c(cnn3-c3ccc(F)cc3)c2)[C@H](C)NC(=O)c2ncsc2C)c1 [Example 288, N-[(1R,2S)-1-[1-(4-fluorophenyl)indazol-5-yl]oxy-1-(3-methoxyphenyl)propan-2-yl]-5-methyl-1,3-thiazole-4-carboxamide]	5 nM
Cc1ccc(F)cc1[C@@H](Oc1ccc2c(cnn2-c2ccc(F)cc2)c1)[C@H](C)NC(=O)C1(C)CC1 [Example 220, N-[(1R,2S)-1-(5-fluoro-2-methyl-phenyl)-1-[1-(4-fluorophenyl)indazol-5-yl]oxy-propan-2-yl]-1-methyl-cyclopropane-1-carboxamide]	4.2 nM
C[C@H](NC(=O)C(F)(F)F)[C@H](Sc1ccc2c(cnn2-c2ccc(F)cc2)c1)c1ccccc1 [Example 103, 2,2,2-trifluoro-N-((1R,2S)-1-(1-(4-fluorophenyl)-1H-indazol-5-ylthio)-1-phenylpropan-2-yl)acetamide]	2.6 nM
CCOC(=O)C(=O)N[C@@H](C)[C@H](Oc1ccc2c(cnn2-c2ccc(F)cc2)c1)c1cccc(OC)c1 [Example 78, Ethyl [(1R,2S)-1-[1-(4-fluorophenyl)indazol-5-yl]oxy-1-(3-methoxyphenyl)propan-2-yl]carbamoylformate]	3.2 nM
C[C@H](NC(=O)CCCN)[C@H](Oc1ccc2c(cnn2-c2ccc(F)cc2)c1)c1ccccc1 [Example 28, 4-Amino-N-[(1R,2S)-1-[1-(4-fluorophenyl)indazol-5-yl]oxy-1-phenyl-propan-2-yl]butanamide]	25 nM
COc1cccc([C@@H](Oc2ccc3c(cnn3-c3ccc(Cl)cc3)c2)[C@H](C)NC(=O)C(C)(F)F)c1 [Example 128, N-((1R,2S)-1-(1-(4-chlorophenyl)-1H-indazol-5-yloxy)-1-(3-methoxyphenyl)propan-2-yl)-2,2-difluoropropanamide]	3.9 nM
Cc1cccc([C@@H](Oc2ccc3c(cnn3-c3ccc(F)cc3)c2)[C@H](C)NC(=O)C(C)(F)F)c1 [Example 239, 2,2-difluoro-N-[(1R,2S)-1-[1-(4-fluorophenyl)indazol-5-yl]oxy-1-(3-methylphenyl)propan-2-yl]propanamide]	9 nM
